How the values were obtained:
[1] = system: orthotropic pancreatic tumor (BxPC3-Luci); assay: In vivo antitumor activity in orthotropic BxPC3 tumor-bearing mice
Description: The orthotropic pancreatic tumor was established by using the bioluminescent BxPC3 cells (BxPC3-Luci). Bioluminescence intensities in mice were measured using the in vivo imaging system of Caliper IVIS Lumina II (PerkinElmer, USA) to evaluate tumour growth. After inoculation with bioluminescent BxPC3 cells for 8 days, the mice were selected and grouped into five groups (n=5). SCGLN, SGLN, free GEM (all dose equivalent to GEM 20 mg/kg), SCLN and PBS were intravenous injected every two days for a total of five times, the tumor site was treated with ultrasound stimulation (intensity: 2 W/cm^2, 3 MHz, duty cycle: 50%, duration: 10 min, Mettler Sonicator-740) after injection. On the first administration (8th day), 12th, 16th, and 20th day, tumor progress was assessed and semi-quantitatively analyzed via bioluminescence after injection of 10 mg/mL D-luciferin in PBS (200 μL) by using the in vivo imaging system. Mice were sacrificed on the 20th day, and tumors were dissected and weighed. The tumor inhibition rate=100%×(mean tumor weight of PBS group−mean tumor weight of experimental group)/mean tumor weight of PBS group. The tumors were fixed with 4% neutral buffered paraformaldehyde and embedded in paraffin. Tissue sections of 5-μm thick were mounted onto glass slides and stained with hematoxylin-eosin (H&E) and examined by light microscopy (OLYMPUS, BX51, Japan). […]

U251 glioma = assay: In vivo antitumor activity in mice bearing U251 glioma subcutaneously
Description: In vivo antitumor activity of the liposomal nanometer particle was further tested in another low permeability tumor of U251 glioma. The mice were subcutaneously inoculated with 2×10^7 U251 cells on the right flank. Same as the experiment of pancreatic tumor treatment, mice were randomly grouped into five groups (n=5) on the 6th day after inoculation. SCGLN, SGLN, free GEM (all dose equivalent to GEM 20 mg/kg), SCLN and PBS were intravenous injected every two days for a total of five times, the tumor site was treated with ultrasound stimulation (intensity: 2 W/cm^2, 3 MHz, duty cycle: 50%, duration: 10 min, Mettler Sonicator-740) after injection, the first administration was on the 6th day. The width and length of the tumors and the bodyweight of mice were measured during the treatment. At the end of the experiment, the mice were euthanized, and tumors were dissected and weighed. The therapeutic efficacy of the treatments was evaluated by comparing the experimental group with the control group.

- Weight of mice during the treatment (U251 glioma; mouse, in vivo): gradually decreased
SMILES: Nc1ccn([C@@H]2O[C@H](CO)[C@@H](O)C2(F)F)c(=O)n1 [GEM, gemcitabine]
- Mean tumor inhibition rate ([1]; dose equivalent to GEM 20 mg/kg i.v. every two days, five times, ultrasound stimulation, tumor weight on 20th day): 66.7%
- Body weight decrease at the end of the experiment ([1]; end of the experiment): ~10 % of the initial weight
- Anti-tumor effect (tumor eradication ability) (U251 glioma; dose equivalent to GEM 20 mg/kg i.v. every two days, five times, ultrasound stimulation, end of the experiment): 68.8%
